Entries after “also recorded” stand apart in the source; their conditions may differ.
Columns and labels:
PI3K = conditions: Smirnova et al., 2012; cited from earlier work
MCF-7 cells [1] = assay: HRG-induced extracellular acidification, media pH measurement; type: cell-based, human
Method: (§1) MCF-7 and T-47D cells were seeded in complete growth media at a density of 0.4×10^6 cells per well in 12-well plates (VWR #62406-165) for proliferation assays and 0.7×10^6 cells per well for pH measurements. Cells were allowed to adhere for 16 hours, followed by 4 hour serum starvation in DMEM, 1% penicillin-streptomycin without fetal bovine serum. […] Each condition was performed in triplicate and repeated a minimum of 3 times. After 24 hours, the cells were counted using a TC-10 Bio-Rad automated cell counter and the media pH was recorded using a pH meter probe. Data shown for each condition represents n=3. A two sided student t-test with standard deviation were used to perform statistical analyses on proliferation rates and media pH measurements. Statistical significance was determined by a p-value ≦0.05.
(§2) MCF-7 cells were seeded (onto 10 cm cell culture plates, VWR #353003) at a density of 5.0×10^6 cells and allowed to adhere for 16 hours. […] The cells were counted and seeded onto 12 well plates (VWR #62406-165) at a density of 0.7×10^6 cells per well for pH measurements and scratch assays or at density of 0.4×10^6 cells per well for proliferation assays. MTK1 knockdown efficiency was determined by immunoblot analysis using 150 μg whole cell lysate at 120 hours post-secondary transfection. […]

MCF-7 cells [2] = assay: Cell proliferation and viability (automated cell count, trypan blue); type: cell-based, human; conditions: 10 nM HRG or 3.3 nM EGF, 24 hours
Method: as §1, §2

HER3 = HER3 phosphorylation in HRG-stimulated MCF-7 cell lysates (immunoblot); conditions: for Effect on phosphorylation (activation) of HER3: MCF-7 cell lysates, 1 μg/ml cytochalasin D 30 minutes, then 10 nM HRG 12 minutes
Method: (§3) MCF-7 cells were maintained in the same media as T-47D cells and supplemented additionally with 10 μg/ml insulin. Prior to experimental procedures, cells were cultured in DMEM supplemented only with 1% penicillin-streptomycin for 16 hrs. […] Cells were treated with 1 μg/ml Cytochalasin D for 30 minutes prior to addition of HRG.
(§4) Images were obtained using ChemiDoc™ XRS+ (BIO-RAD) and quantification was performed with Image Lab Software. […] All commercial antibodies were used according to manufacturer recommendations.

MTK1/HER3 association = assay: HRG-induced MTK1/HER3 association, MTK1 immunoprecipitation and immunoblot in MCF-7 cells; conditions: then 10 nM HRG 12 minutes; for Effect on HRG-induced MTK1/HER3 association: MCF-7 cells pre-treated with 0, 50, 100 or 200 nM lapatinib for 1 hour, pTyr immunoblot of MTK1 IP
Method: as §3, §4
The cells were then washed twice with ice-cold 1× phosphate buffered saline pH 7.4. […] Immune complexes recovered using protein A-Sepharose beads (Sigma Cat# P3391) were washed twice with ice-cold lysis buffer and denatured with Laemmli sample buffer.

MCF-7 cells [3] = assay: Scratch assay, HRG-induced cell migration; type: cell-based, human; conditions: 250 nM lapatinib pre-treatment, 10 nM HRG
Method: MCF-7 cells were seeded (onto 10 cm cell culture plates, VWR #353003) at a density of 5.0×10^6 cells and allowed to adhere for 16 hours. The cells were then transfected with 434 pmol of siRNA specific for MTK1 (Thermo Scientific ON-TARGETplus SMARTpool, Human MAP3K4 (4216) Cat #L-003789-00-0005) or non-targeting (NS) (ON-TARGETplus Non-targeting Pool Cat #D-001810-10-05) as control using lipofectamine 2000 according to manufacture recommendations. The cells were transfected with siRNA a second time 24 hours later using lipofectamine 2000 to enhance knockdown efficiency. Twenty-four hours after the second transfection the cells were detached using 0.25% trypsin (Invitrogen #15050-065). The cells were counted and seeded onto 12 well plates (VWR #62406-165) at a density of 0.7×10^6 cells per well for pH measurements and scratch assays or at density of 0.4×10^6 cells per well for proliferation assays. MTK1 knockdown efficiency was determined by immunoblot analysis using 150 μg whole cell lysate at 120 hours post-secondary transfection. Each condition was performed in triplicate and repeated a minimum of 3 times. Data shown for each condition represents n=3. Statistical analysis was performed as described above.
Scratch assays were performed in 12-well plates using MCF-7 cells at a density of 0.7×10^6 cells per well. […]

Compound: Cc1ccc([N+](=O)[O-])cc1S(=O)(=O)N(C)/N=C/c1cnc2ccc(Br)cn12 [PIK-75]
- Effect on cell motility and invasion (PI3K): inhibits cell motility and invasion

Compound: EGF: growth factor used to stimulate cells at 3.3 nM; activates EGFR and HER2 (NSDSECPLSHDGYCLHDGVCMYIEALDKYACNCVVGYIGERCQYRDLKWWELR; Epidermal growth factor; UniProt P01133 971-1023, looked up)
- Extracellular acidification of cell culture media by stimulation (MCF-7 cells [1]; 10 nM HRG or 3.3 nM EGF, 24 hours, compared to vehicle): no effect; also recorded: did not induce extracellular acidification
- Cell proliferation on stimulation (MCF-7 cells [2]): proliferative response was detected; also recorded: induced cell proliferation

Compound: C=C1[C@@H](C)[C@H]2[C@H](Cc3ccccc3)NC(=O)[C@]23[C@H](OC(C)=O)/C=C/[C@@](C)(O)C(=O)[C@@H](C)C/C=C/[C@H]3[C@@H]1O [cytochalasin D]
- Effect on phosphorylation (activation) of HER3 (HER3): not affected; also recorded: remained the same
- Effect on phosphorylation (activation) of HER3 (HER3; listed as Cytochalasin D): no effect
- Effect on HRG-induced MTK1/HER3 association (in words) (MTK1/HER3 association; MCF-7 cells, 1 μg/ml cytochalasin D 30 minutes): disrupted the communication or signaling between HER3/ErbB3 and MTK1; also recorded: inhibited HRG induced MTK1/HER3 association; also recorded: inhibited MTK1 and HER3 association
- Effect on HRG-induced MTK1/HER3 association (in words) (MTK1/HER3 association; MCF-7 cells, 1 μg/ml cytochalasin D 30 minutes, listed as Cytochalasin D): diminished interaction between MTK1 and HER3
- Decrease of interaction between HER3 and MTK1 (MTK1/HER3 association; MCF-7 cells, 1 μg/ml cytochalasin D 30 minutes, pY1289 HER3 immunoblot of MTK1 IP): ~60%

Compound: CS(=O)(=O)CCNCc1ccc(-c2ccc3ncnc(Nc4ccc(OCc5cccc(F)c5)c(Cl)c4)c3c2)o1 [lapatinib]
- Effect on HRG-induced extracellular acidification (MCF-7 cells [1]; 250 nM lapatinib pre-treatment, 10 nM HRG 24 hours, media pH): significantly decreased; also recorded: inhibition of HRG-induced extracellular acidification
- Effect of lapatinib on HRG-induced cell migration (MCF-7 cells [3]): significantly decreased cell migration
- Effect on tyrosine phosphorylation of HER3 in lysates (HER3; MCF-7 cells, lapatinib 50-200 nM pre-treatment 1 hour, 10 nM HRG 12 minutes): effectively inhibited; also recorded: decreased
- Effect on HRG-induced MTK1/HER3 association (MTK1/HER3 association): effectively inhibited; also recorded: attenuates MTK1/HER3 association; also recorded: inhibited association of MTK1 and HER3
- Effect on HRG-induced MTK1/HER3 association (MTK1/HER3 association; listed as Lapatinib): decreased the interaction between HER3 and MTK1 in a dose dependent manner

— US20150045407A1, “MTK1-ACTIN INHIBITORS AND METHODS OF USE” (THE ARIZONA BOARD OF REGENTS ON BEHALF OF THE UNIVERSITY OF …, priority 2013, published 2015)
